Where a name gives a salt, the structure may show the parent alone. Some results are limits rather than exact numbers.

The values below come from patent US5317014A, “Peptides and pseudopeptides derived from tachykinin” (priority 1991, dated 1994).

In one assay the target is T1, NK2 receptor (Oryctolagus cuniculus, UniProt P79218).
T1 construct: three smooth muscle preparations were used; from tissue; host or cells: rabbit pulmonary artery without endothelium (isolated smooth muscle)
T1 sequence (P79218 1-384): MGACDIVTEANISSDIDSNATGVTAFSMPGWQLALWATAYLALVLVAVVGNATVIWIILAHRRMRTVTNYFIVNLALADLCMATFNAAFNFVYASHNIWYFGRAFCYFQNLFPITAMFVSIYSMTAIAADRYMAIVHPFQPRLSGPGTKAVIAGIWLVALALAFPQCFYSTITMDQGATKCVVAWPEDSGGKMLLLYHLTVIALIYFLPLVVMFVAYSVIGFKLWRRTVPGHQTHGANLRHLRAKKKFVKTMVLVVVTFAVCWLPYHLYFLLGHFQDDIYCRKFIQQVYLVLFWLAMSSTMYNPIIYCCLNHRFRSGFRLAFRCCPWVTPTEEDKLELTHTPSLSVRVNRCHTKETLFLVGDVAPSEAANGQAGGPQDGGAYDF
Briefly: Bio assay on isolated smooth muscle: rabbit pulmonary artery without endothelium. The settings on record: antagonistic power, read-out: pA2 NK2 (converted). The format is cell-based. The procedure:
(§1) In order to evaluate the neurokinin antagonistic potential of the compounds of the invention, three smooth muscle preparations were used. Each of these preparations, described as having a good specificity for one type of receptor for neurokinins, was carried out conforming to the following techniques described in the literature:
rabbit pulmonary artery without endothelium for the study of the NK2 receptor according to D. REGOLI et al. (European J. Pharmacol. 125, 37-44, 1985);
(§2) The antagonistic power of the compounds of the invention is expressed in the form of pA2 as defined by O. ARUNLAKSHANA and H. O. SCHILD (Brit. J. Pharmacol., 14, 48-58, 1959).

For another assay, the target named is T2, NK3 receptor (Rattus norvegicus, UniProt P16177).
T2 construct: three smooth muscle preparations were used; from tissue; host or cells: rat portal vein (isolated smooth muscle)
T2 sequence (P16177 1-452): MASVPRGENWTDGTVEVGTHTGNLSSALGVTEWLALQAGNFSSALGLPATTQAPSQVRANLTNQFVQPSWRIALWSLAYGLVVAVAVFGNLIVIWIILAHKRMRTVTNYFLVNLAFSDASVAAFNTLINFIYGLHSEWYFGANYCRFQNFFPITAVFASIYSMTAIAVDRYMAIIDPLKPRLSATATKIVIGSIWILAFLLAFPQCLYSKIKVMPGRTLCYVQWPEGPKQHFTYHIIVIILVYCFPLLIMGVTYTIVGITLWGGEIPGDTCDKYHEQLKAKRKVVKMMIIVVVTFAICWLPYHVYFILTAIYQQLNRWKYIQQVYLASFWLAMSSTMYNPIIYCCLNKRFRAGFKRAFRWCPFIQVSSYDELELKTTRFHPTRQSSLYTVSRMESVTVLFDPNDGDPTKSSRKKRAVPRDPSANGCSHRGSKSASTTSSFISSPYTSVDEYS
Briefly: Bio assay on isolated smooth muscle: rat portal vein. The format is cell-based. Particulars: antagonistic power, read-out: pA2 NK3 (converted). The procedure: as §1
rat portal vein for the study of the NK3 receptor according to D. REGOLI et al. (European J. Pharmacol. 134, 321-326, 1986).
as §2

For the next assay, the system named is NK1 receptor. The format is cell-based, rabbit. Particulars: for pA2 NK1: antagonistic power, rabbit vena cava. The procedure: as §1
rabbit vena cava for the study of the NK1 receptor according to D. REGOLI et al. (J. Cardiovasc. Pharmacol., in press);
as §2

The next assay concerns mouse. In words: Eddy test in the mouse (thermal hyperalgesia, hot plate 55° C.). The format is in vivo. Particulars: dose increasing the reaction time by 50%; i.v. 5 minutes before heating plate; CD1 male mice. The procedure: This test consists in measuring the reaction time to heat determined by licking of the forepaws in a mouse (CD1 male, Ch. River, 25-30 g) placed on a metal plate heated to 55° C.
The animals were treated intravenously with the compounds of the invention 5 minutes before passing onto the heating plate.
The mean of the reaction times obtained for each batch treated (12 mice per batch) was compared with the mean of the corresponding control batch.

On to `CN(Cc1ccccc1)C(=O)[C@H](Cc1ccccc1)NC(=O)[C@@H](Cc1cn(C=O)c2ccccc12)NC(=O)C[C@@H]1NC(=O)[C@@H]2C3CCC(CC3)N2C1=O` [Example 1, Cyclo(Abo--Asp)--trp(CHO)--Phe--N(CH3)CH2 C6 H5], for which the Kb at NK2 receptor and on NK3 receptor was 13.8 µM in each case.
On to `CN(Cc1ccccc1)C(=O)[C@H](Cc1ccccc1)NC(=O)[C@@H](Cc1cn(C=O)c2ccccc12)NC(=O)C[C@H]1NC(=O)[C@H]2C3CCC(CC3)N2C1=O` [Example 5, Cyclo(abo--asp)--trp(CHO)--Phe--N(CH3)CH2 C6 H5], for which the Kb is 2 µM at NK2 receptor and 13.8 µM at NK3 receptor.
As to `CN(Cc1ccccc1)C(=O)[C@H](Cc1ccccc1)NC(=O)[C@@H](Cc1cn(C=O)c2ccccc12)NC(=O)C[C@H]1NC(=O)[C@@H]2Cc3ccccc3CN2C1=O` [Example 6, Cyclo(Tic--asp)--trp(CHO)--Phe--N(CH3)CH2 C6 H5], the “pA2 NK1” value with NK1 receptor is listed as 6.87. Further, the Kb is more than 6.76 µM at NK2 receptor and 13.5 µM at NK3 receptor.
`CN(Cc1ccccc1)C(=O)[C@H](Cc1ccccc1)NC(=O)[C@@H](Cc1cn(C=O)c2ccccc12)NC(=O)C[C@@H]1NC(=O)[C@H](Cc2ccccc2)N(C)C1=O` [Example 7, Cyclo(MePhe--Asp)--trp(CHO)--Phe--N(CH3)CH2 C6 H5]: in the assay with NK1 receptor, the “pA2 NK1” value stood at 6.87. In addition, the Kb at NK2 receptor and on NK3 receptor was 13.5 µM each time.
For `CN(Cc1ccccc1)C(=O)[C@H](Cc1ccccc1)NC(=O)[C@@H](Cc1c[nH]c2ccccc12)NC(=O)C[C@@H]1NC(=O)[C@@H]2C3CCC(CC3)N2C1=O` [Example 9, Cyclo(Abo--Asp)--trp--Phe--N(CH3)CH2 C6 H5], on NK2 receptor, the Kb was 1 µM.
Consider `CN(Cc1ccccc1)C(=O)[C@H](Cc1ccccc1)NC(=O)C[C@@H]1NC(=O)[C@@H]2Cc3ccccc3CN2C1=O` [Example 16, Cyclo(Tic--Asp)--Phe--N(CH3)CH2 C6 H5], for which the “pA2 NK1” value in the assay on NK1 receptor turned out to be 6.02. Also, the Kb at NK2 receptor and at NK3 receptor was 19.1 µM each time.
Take `CN(Cc1ccccc1)C(=O)[C@H](Cc1ccccc1)NC(=O)[C@@H]1C2CCC(CC2)N1C(=O)c1c[nH]c2ccccc12` [Example 31, (indol-3-yl) carbonyl--Abo--Phe--N(CH3)CH2 C6 H5]: the “pA2 NK1” value with NK1 receptor is 7.34. Moreover, the values for the Kb at NK2 receptor and on NK3 receptor were 13.8 µM and 9.12 µM, respectively.
Regarding `CN(Cc1ccccc1)C(=O)[C@H](Cc1ccccc1)NC(=O)[C@@H](Cc1cn(C(=O)CCCCCCN)c2ccccc12)NC(=O)C[C@@H]1NC(=O)[C@@H]2C3CCC(CC3)N2C1=O` [Example 38, Cyclo(Abo--Asp)--trp(CO(CH2)6 NH2, HCl)--Phe--N(CH3)CH2 C6 H5], the “pA2 NK1” value in the assay with NK1 receptor worked out at 6.70.
Consider `CN1CC[C@]23c4c5ccc(O)c4O[C@H]2[C@@H](O)C=C[C@H]3[C@H]1C5` [morphine], for which the “Eddy test in the mouse ED50” value in the assay on mouse stood at 0.5 mg/kg i.v.
Consider “Cyclo(Tic--asp)--.PSI.(CH2 S)--Phe--N(CH3)CH2 C6 H5 [Example 24]”, for which the “antagonistic activity with respect to NK1 receptors, compared with NK2 and NK3 (in words)” value in the assay on NK1 receptor (isolated smooth muscle preparations) is listed as “more particularly the case”.
